Experimental data from US20260240843A1, “PHARMACEUTICAL COMPOSITION AND USE THEREOF” (priority 2023, published 2026).
Counter-ions that a name gives are not always drawn. Like-named read-outs stand apart in the source and are kept apart here.

Experiments:
[1] = system: human ovarian cancer OVCAR3 cell xenograft tumor; settings: PLD 3 mg/kg i.v. qw x 3 w; for tumor growth inhibition (in words): (I-1) 100 mg/kg p.o. qd x 21 d
From the text: A total of 56 immunodeficient mice were subcutaneously injected with 10×10^6 OVCAR3 cells to establish a xenograft tumor model. Tumor-bearing mice with uniform tumors were randomly grouped into different treatment groups based on tumor volume, with 6 mice in each group.
Tumor cells: OVCAR3; 10×10^6 cells+Matrigel gel/mouse. A total of 56 mice were inoculated. 24 tumor-bearing mice with relatively uniform tumors were selected and randomly divided into 4 experimental groups, with 6 mice in each group.
(§1) Under sterile conditions, a xenograft tumor model was established by subcutaneous injection of tumor cells into the right dorsal side of immunodeficient mice. When the tumor reached an appropriate size (100 mm^3 to 200 mm^3), the animals were randomly grouped by randomized block method based on the tumor volume of the animals, the tumor volume difference of each group should be less than 20% of the mean value, with 6 to 7 animals in each group, and administration was started on the day of grouping (i.e., d1). The body weight and tumor size of the animals were measured twice a week during the experiment. The clinical symptoms were observed and recorded daily. At the end of administration or at the end of the experiment.
(§2) The tumor volume (TV) was calculated as follows: TV=a×b^2/2, where a and b represent the measured length and width of the tumor, respectively.
(§3) The relative tumor volume (RTV) was calculated as follows: RTV=Vt/V1, where V1 represents the tumor volume at the time of grouping and administration (day 1), and Vt represents the tumor volume at the time of measurement.
(§4) The synergy score was calculated using the following formula (Clarke R, 1997):
(§5) [formula] • where A represents response to drug A; B represents response to drug B; C represents response to vehicle control; AB represents response to combination treatment with A and B.
(§6) The antitumor growth curves of the test substances were plotted by taking the X-axis as the treatment time (day) and the corresponding tumor volume (mean value) as the Y-axis. […] All data were statistically analyzed using SPSS (Statistical Product and Service Solutions) software (version 18.0, IBM, Armonk, NY, U.S.). Graphing was performed using Prism version 6 (GraphPad Software Inc., San Diego, CA).
(§7) For combination treatment, a synergy score of <1 indicated antagonistic effect, a synergy score of =1 indicated additive effect, and a synergy score of >1 indicated synergistic effect.

[2] = system: human ovarian cancer OVCAR3 cell xenograft tumor; settings: doxorubicin hydrochloride 3 mg/kg i.v. qw x 4 w; for tumor growth inhibition (in words): (I-1) 100 mg/kg p.o. qd x 28 d; for RTV on day 29 after administration (mean value ± standard error) / T/C (%) on day 29 after administration: day 29, (I-1) 100 mg/kg p.o. qd x 28 d
From the text: A total of 71 immunodeficient mice were subcutaneously injected with 10×10^6 OVCAR3 cells to establish a xenograft tumor model. Tumor-bearing mice with uniform tumors were randomly grouped into different treatment groups based on tumor volume, with 7 mice in each group.
Tumor cells: OVCAR3; 10×10^6 cells+Matrigel gel/mouse. A total of 71 mice were inoculated. 28 tumor-bearing mice with relatively uniform tumors were selected and randomly divided into 4 experimental groups, with 7 mice per group.
as §1, §2, §3, §4, §5, §6, §7

[3] = system: mouse ovarian cancer ID8 cells; test: Murine ovarian cancer ID8 cell intraperitoneal model, combination with PLD; assay type: in vivo, mouse (C57BL/6)
Description: A total of 90 C57BL/6 mice were intraperitoneally injected with 15×10^6 ID8 cells to establish an ovarian cancer intraperitoneal model.
The body weight and tumor volume of the animals were measured twice or thrice a week during the experiment. The clinical symptoms were observed and recorded daily. After the administration was completed, the abdominal girth, body weight, and survival time of the mice were continuously observed until all the animals were subjected to euthanasia.
The tumor volume (TV) was measured using an IVIS imaging system, and the total luminescence value (Total flux) of each mouse was calculated under the same measurement area.
The animals were euthanized according to animal welfare principles when the body weight loss of the animals exceeded 20%, disease progression or moribund state was observed, the tumor burden exceeded 10% of the animal's body weight, the abdominal girth exceeded 100 mm, or the body weight exceeded 30 g.
Graphing was performed using Prism version 9 (GraphPad Software Inc., San Diego, CA), and the survival time and ascites production time were analyzed using the log-rank test.

[4] = day 22, (I-1) 100 mg/kg p.o. qd x 21 d

Compound	tumor growth inhibition (in words) [1]	RTV on day 22 after administration (mean value ± standard error) [1, 4]	T/C (%) on day 22 after administration [1, 4] [%]	tumor growth inhibition (in words) [2]	RTV on day 29 after administration (mean value ± standard error) [2]	T/C (%) on day 29 after administration [2] [%]	survival time of the mice (in words) ([3]; compared with the solvent control group (combination also vs. monotherapy groups))	T/C on day 22 ([3]; day 22, (I-1) 100 mg/kg p.o. qd x 21 d, PLD 3 mg/kg i.v. qw x 3 w) [%]	T/C (%) on day 36 after administration ([3]; day 36, (I-1) 100 mg/kg p.o. qd x 21 d, PLD 3 mg/kg i.v. qw x 3 w) [%]	RTV on day 36 after administration (mean value ± standard error) ([3]; day 36, in vivo imaging (Total flux), (I-1) 100 mg/kg p.o. qd x 21 d, PLD 3 mg/kg i.v. qw x 3 w)
Cc1cc(Nc2ncc(Cl)c(Nc3ccccc3S(=O)(=O)C(C)C)n2)c(OC(C)C)cc1C1=CCN(C2CCOCC2)CC1 [Compound represented by formula (I-1)]	moderate tumor growth inhibition	7.42 ± 1.06	72.77	moderate tumor growth inhibition	7.95 ± 1.31	63.15	prolonged	37.49	97.13	4.72 ± 1.35
COc1cccc2c1C(=O)c1c(O)c3c(c(O)c1C2=O)C[C@@](O)(C(=O)CO)C[C@@H]3O[C@H]1C[C@H](N)[C@H](O)[C@H](C)O1 [Doxorubicin hydrochloride, reference compound]	moderate tumor growth inhibition			moderate tumor growth inhibition	8.88 ± 1.19	70.50				
